Assay results as given in patent US9993444B2, “Use of beta-adrenergic inverse agonists for smoking cessation” (INVION, INC., priority 2011, dated 2018).
Entries after “also recorded” stand apart in the source; their conditions may differ.

Experiments:
[1] = test system: sensitized and challenged mice; experiment: Airway hyperresponsiveness to methacholine in a mouse model of obstructive lung disease, chronic administration; type: in vivo; conditions: for airway hyperresponsiveness: compared to untreated sensitized and challenged mice
Description: Even though alprenolol is a β-adrenergic antagonist, it has partial agonist activity. Carvedilol is a β1/β2 non-selective adrenergic antagonist with α1-adrenergic antagonist activity.

[2] = test system: patients with CHF; conditions: cited from earlier work
[3] = test system: tracheas from asthmatic mice; conditions: chronically treated asthmatic mice, excised tracheas; WO 02/29534; cited from earlier work
[4] = acute administration; U.S. Pat. No. 6,284,800; cited from earlier work
[5] = test system: β-adrenergic receptor; conditions: cited from earlier work
[6] = test system: asthmatic mice; experiment: Lung histology (periodic acid-Schiff stain, goblet cells/mucus) after chronic inverse agonist treatment of ovalbumin-sensitized and -challenged mice; type: in vivo, Balb/cJ mice
Experimental: (§1) Mice were made asthmatic by sensitization to the antigen ovalbumin. Balb/cJ mice aged 6 weeks (Jackson Animal Laboratory, Bar Harbor, Me.) were housed under specific pathogen-free conditions and fed a chicken ovalbumin-free diet. Mice were sensitized with subcutaneous injection of 25 μg of ovalbumin adsorbed to aluminum hydroxide on protocol days 2, 9, and 16. Subsequently, mice were given […] of saline solution containing 25 μg of ovalbumin intranasally, on a daily basis, from protocol days 23 through 27. A group of ovalbumin-sensitized saline-challenged mice serves as controls for systemic sensitization and respiratory challenges with ovalbumin. Prior to intranasal administrations, mice were sedated with halothane vapor. For the study of this Example, ovalbumin-sensitized and ovalbumin-challenged mice, and ovalbumin-sensitized and saline-challenged mice will be referred to as asthmatic mice and control mice, respectively.
(§2) Animals received drug treatment for 7 days from day 21 to 27 of the sensitization/challenging protocol; ICI-118,551 at 10 mg/kg, was administered 3 times a day subcutaneously by osmotic minipump (Alzet®, #2004, Durect Corporation, Cupertino, Calif.). ICI-118,551 was dissolved in 50% DMSO. […]

[7] = test system: asthmatic mice; experiment: Lung histology (hematoxylin-eosin) after chronic inverse agonist treatment of ovalbumin-sensitized and -challenged mice; type: in vivo, Balb/cJ mice; conditions: ICI-118,551 10 mg/kg subcutaneously by osmotic minipump, 7 days (day 21 to 27)
Experimental: as §1, §2

Q: Which results are given for COc1ccccc1OCCNCC(O)COc1cccc2[nH]c3ccccc3c12 (stereo not shown) [carvedilol]?
A: sensitivity of the responsiveness to methacholine [1]: shifts the sensitivity of the responsiveness to methacholine to lower concentrations; airway hyperresponsiveness [1]: does reduce airway hyperresponsiveness; clinical outcome in congestive heart failure (mortality / benefit over placebo) [2]: significant mortality reduction; rank of effectiveness on tracheal contraction in response to methacholine [3]: followed by carvedilol

Q: With CC(C)NC[C@@H](O)COc1cccc2ccccc12 [D-propranolol] as the compound, how does the “antigen-induced bronchoconstriction and airway hyperresponsiveness” value [4] read?
A: beneficial in inhibiting antigen-induced bronchoconstriction and reducing airway hyperresponsiveness

Q: And the “potency in inhibiting the β-adrenergic receptor relative to the L-form” value ([5]; U.S. Pat. No. 5,116,867)?
A: 1/100

Q: And the “activity with respect to β-adrenergic receptors” value ([5]; U.S. Pat. No. 6,284,800)?
A: inactive

Q: With CC(C)NC[C@H](O)COc1cccc2ccccc12 [L-form of propranolol, propranolol] as the compound, how does the specific lung resistance [4] read?
A: increased specific lung resistance

Q: What does the source list for C=CCc1ccccc1OCC(O)CNC(C)C (stereo not shown) [alprenolol]?
A: airway hyperresponsiveness [1]: does not reduce airway hyperresponsiveness; also recorded: without any activity; rank of effectiveness on tracheal contraction in response to methacholine [3]: most effective compound

Q: With CC(C)(Cc1c[nH]c2ccccc12)NCC(O)COc1ccccc1C#N (stereo not shown) [bucindolol] as the compound, how does the “clinical outcome in congestive heart failure (mortality / benefit over placebo)” value [2] read?
A: failed to demonstrate any benefit over placebo

Q: Which “clinical outcome in congestive heart failure (mortality / benefit over placebo)” value [2] does the source give for COCCc1ccc(OCC(O)CNC(C)C)cc1 (stereo not shown) [metoprolol] here?
A: significant mortality reduction

Q: Which results are given for Cc1ccc(OCC(O)C(C)NC(C)C)c2c1CCC2 (stereo not shown) [ICI 118,551]?
A: appearance of lung epithelial cells, PAS stain (FIG. 6) ([6]; ICI-118,551 10 mg/kg subcutaneously by osmotic minipump, 7 days (day 21 to 27)): appear substantially normal; transformation of lung epithelium from ciliated cells to mucus-producing goblet cells (FIGS. 1-6) ([6]; chronic treatment): restores the airway epithelium to a normal healthy state; also recorded: substantially reversed the transformation of lung epithelium; appearance of lung epithelial cells, hematoxylin-eosin staining (FIG. 3) [7]: substantially returned to their normal appearance; rank of effectiveness on tracheal contraction in response to methacholine [3]: then ICI-118,551
